Measurements reported in patent US9301528B2 (Rohm and Haas Company, priority 2012, dated 2016).

Assays:
[1] = tested on: Stichococcus bacillaris SAG 379-1a / CCAP 379/1a; test: Algal efficacy testing of dry paint films (modified ASTM 5589, 6-well plates); type: cell-based; settings: 3 weeks; for % inhibition: at the total conc, vs blank; for Total conc: total biocide conc in paint reported for pass level ≧75% inhibition (max tested 5000 ppm if no pass)
Method: (§1) KATHON™ 893T (100% OIT) and ROCIMA™ 200 (20% DCOIT) were post added to a white, acrylic/silicone based outdoor paint free of biocides to give a total active ingredient concentration of 10000 and 1000 ppm respectively. These paints were then diluted with an antimicrobial free acrylic/silicone based paint and mixed to prepare targeted concentrations of antimicrobial compounds for the testing. The total biocides concentrations tested were 125, 250, 500, 1000, 2000 and 5000 ppm. After biocides addition or dilution, the paints were mixed 90 seconds with the horse power shaker (AXEL 75M3372/Agitateur SO-10MI) until uniformity was achieved. Paints containing different antimicrobial compounds at the same levels were mixed together in order to obtain the desired ratio of antimicrobial compounds. After one day, the paints were applied to Schleicher & Schuell filter paper at 280 μm wet film thickness and dried for 3 days at room temperature avoiding direct exposure to sunlight. Square discs (1.6 cm×1.6 cm) were cut out from each panel and were used as the substrate for algal efficacy tests. This sample size allowed for an agar border when the sample disc was placed into the well of the test plate.
(§2) Algal efficacy was tested according to modified ASTM 5589 which is a standard accelerated test method for determining resistance of various coatings (including paints) to algal defacement. To accommodate for high-throughput screening, this method was scaled down from petri dishes to 6-well plates. Bold Modified Basal Freshwater Nutrient Solution was used as growth medium. A single coated filter paper coupon was placed with a pair of sterile forceps at the center of the agar plug (on top) with the painted surface facing upwards. Algal inoculums were prepared by mixing equal concentrations (1×10^6 cfu/ml) and equal volumes of exponentially growing algae cultures.
(§3) Each well that contains a tested coupon was inoculated with 1750 μl of algal suspensions (1×10^6 cfu/ml) making sure that the whole surface (paint film as well as the agar surrounding it) was evenly covered. The plates were incubated at room temp (21° C.-25° C.) with cyclic exposure to light and dark phases, for a period of three weeks.
(§4) At the end of the three week incubation period, the samples were scored for percent inhibition regarding visible algal growth compared to the blank sample (0% inhibition).
(§5) The SI is calculated based on F. C.
(§6) SI value of <1 in the formula indicates a synergism of the blended biocides exists.
(§7) The minimal targeted inhibition was set at 75%, meaning a coupon with at least 75% algal growth inhibition was considered as a pass.

Chlorella sp. ATCC 7516 = test: as above; type: cell-based; settings: 3 weeks; for % inhibition: at the total conc, vs blank; for Total conc: total biocide conc in paint reported for pass level ≧75% inhibition (max tested 5000 ppm if no pass)
Method: as §1, §2, §3, §4, §5, §6, §7

With `CCCCCCCCn1sccc1=O` [OIT, 2-n-octyl-4-isothiazolin-3-one] the “% inhibition” value ([1]; OIT/Lenacil table) was 90%, the Total conc ([1]; OIT/Lenacil table) was 500 ppm and the “% inhibition” value (Chlorella sp. ATCC 7516; OIT/Lenacil table) was 95%. For the same compound, the Total conc (Chlorella sp. ATCC 7516; OIT/Lenacil table) was 1000 ppm.

`O=c1[nH]c2c(c(=O)n1C1CCCCC1)CCC2` [Lenacil, 3-cyclohexyl-1,5,6,7-tetrahydrocyclopentapyrimidine-2,4(3H)-dione] was tested, and the “% inhibition” value ([1]; DCOIT/Lenacil table) was 70%, the Total conc ([1]; DCOIT/Lenacil table) was 5000 ppm and the “% inhibition” value ([1]; OIT/Lenacil table) was 30%. For the same compound, the Total conc ([1]; OIT/Lenacil table) was 5000 ppm, the “% inhibition” value (Chlorella sp. ATCC 7516; DCOIT/Lenacil table) was 30% and the Total conc (Chlorella sp. ATCC 7516; DCOIT/Lenacil table) was 5000 ppm. The “% inhibition” value (Chlorella sp. ATCC 7516; OIT/Lenacil table) was 45% and the Total conc (Chlorella sp. ATCC 7516; OIT/Lenacil table) was 5000 ppm.

With `CCCCCCCCn1sc(Cl)c(Cl)c1=O` [DCOIT, 4,5-dichloro-2-n-octyl-4-isothiazolin-3-one] the “% inhibition” value ([1]; DCOIT/Lenacil table) was 95%, the Total conc ([1]; DCOIT/Lenacil table) was 1000 ppm and the “% inhibition” value (Chlorella sp. ATCC 7516; DCOIT/Lenacil table) was 85%. It also gave a Total conc (Chlorella sp. ATCC 7516; DCOIT/Lenacil table) of 1000 ppm.
